In US11497740B2, “Use of Jumonji C demethylase inhibitors for the treatment and prevention of chemotherapy resistance and radioresistance in cancer” (THE BOARD OF REGENTS OF THE UNIVERSITY OF TEXAS SYSTEM, priority 2016, dated 2022):

What was measured:
H3K9me3 at DSBs = assay: γH2AX immunoprecipitation, H3K9me3 at DSBs; type: cell-based, Human; details: JIB-04 4 h, IR 20 Gy
Method: For Histone demethylase activity determination 10×10^6 H1299 cells were seeded in P150 plates. Next day cells were preincubated with JIB-04 for 4 h and then irradiated with 20 Gy. Media was removed from cells, washed with PBS and fixed with 3% w/v PFA, 2% w/v sucrose in PBS for 1 min. Then cells were washed, scraped into media, pelleted by centrifugation (at 500 g for 2 min) and washed with Phosphatase inhibitor 1×, 1 μM Wortmannin (WM) and protease inhibitors 1× (Sigma). Cell pellets were re-suspended in 2.5× the packed cell volume (PCV) of Nucleosome Preparation Buffer (NPB, 10 mM HEPES [pH 7.9], 10 mM KCl, 1.0 mM CaCl2, 1.5 mM MgCl2, 0.34 M sucrose, 10% glycerol, 1 mM DTT, 0.1% Triton X-100) containing Phosphatase inhibitor, 1 μM Wortmannin (WM) and protease inhibitors (Sigma) and 100 U ml-1 micrococcal nuclease (MNase) and incubated at […] for 45 min (note: WM is required to block in vitro DNA-PK/ATM activation by MNase-produced DSBs). An equal volume of Nucleosome Solubilization Buffer (NSB=Nucleosome preparation buffer+2% [v/v] NP-40, 2% [v/v] Triton X-100, 600 mM NaCl) was then added. Samples were then vortexed, sonicated briefly and centrifuged at 10,000 rpm for 10 min. […] Protein levels on samples were quantified and equal amounts of protein run on 4-12% SDS acrylamide gels. […] Quantification was done using the using ImageJ software (National Institute of Health, NIH)

[1] = test system: H3K4me3 demethylase Jumonji enzymes; assay: Histone demethylase activity in H1299 cellular extracts (H3K4me3); type: cell-based, Human; details: JIB-04 4 h
Method: For Histone demethylase activity determination 2×10^6 H1299 cells were seeded in P150 plates. After 24 h cells were pretreated with JIB-04 or DMSO for 4 h, irradiated with a total dose of 8 Gy of radiation. Then cells were sonicated (3×4 sec) and equal amounts of protein were incubated with a histone H3K4me3 or H3K9me3 substrate in a reaction buffer containing cofactors for 1 h at 37° C. Finally specific immune-detection of the H3K4me2 or H3K9me2 product using the Epigentek kit P-3081 for H3K9me3 demethylation and P-3083 for H3K4me3 demethylation. Background readings were given by heat inactivated extracts.

H1299 NSCLC xenografts = assay: Tumor growth delay with JIB-04 and IR, H1299 xenografts; type: in vivo, mice; details: JIB-04 50 mg/kg oral gavage, IR 2 Gy 4 h after drug, every other day, 12 doses
Method: H1299 NSCLC cells were injected subcutaneously (5×10^6 cells in 100 μL) into the right posterior leg of female athymic nude mice (nu/nu, 5-6 weeks old). Treatment was initiated when the subcutaneous tumors reached an average size of 150 to 200 mm^3. Mice were treated with JIB-04 (50 mg/kg/day) by oral gavage or with vehicle (12.5% Cremophor EL, 12.5% DMSO as an aqueous suspension) as control; radiation was administered 4 hours after treatment. The treatment regimen consisted of a total of 12 doses of drug and/or ionizing radiation given every other day. Tumor growth delay and the dose enhancement factor were then determined. Body weight and general health were monitored every other day during the drug-treatment period and afterward. Standard survival criteria was applied to ensure animals including severe lethargy, 20% weight loss, tumor burden >2,000 mm^3 and difficulty breathing. Survival data was analyzed using GraphPad Prism software.

[2] = test system: H1355 Parental xenografts; assay: Subcutaneous xenograft drug response, H1355 Parental; type: in vivo, mice; details: GSK-J4 100 mg/kg i.p. 5x per week; JIB-04 50 mg/kg oral gavage 3x per week; 4 weeks
Method: Animals were housed under standard, sterile conditions at UTSW animal facility. All experiments were carried out under approved IACUC protocols and followed UTSW animal care procedures. For tumor growth rate studies and docetaxel+cisplatin drug response comparisons, 6-8 week old female NOD/SCID mice were used. For all subsequent in vivo drug response studies, 6 week old female athymic nude mice were used (Charles River Labs, Jackson Labs). Experimental details are provided in supplemental information.
Parental and resistant NSCLC cell lines (1×10^6 cells in PBS or RPMI for H1299; 5×10^6 cells in PBS/matrigel for H1355 and HCC4017) were injected subcutaneously into the right flank of mice. Tumor growth was monitored by caliper measurements and tumor volume was calculated by 0.5×length×width^2). Treatment was started when tumors reached ˜150-200 mm3. Drug/Vehicle therapy was given to tumor volume matched pairs. Docetaxel (3 mg/kg) and cisplatin (3 mg/kg) were given i.p. once a week for 3 weeks. […]

[3] = test system: homologous recombination (HR); assay: Green fluorescent protein HR reporter assay, H1299; type: cell-based, Human; details: H1299 cells with integrated construct
Method: The green fluorescent protein assay was performed as described by Seluanov et al. To generate reporter cell lines 2 million H1299 cells were transfected with 0.5 μg of linearized NHEJ-I, or HR reporter constructs using the Amaxa Nucleofector; program X-005. G418, at 1 mg/ml, was added to the media 1 day post-transfection. Then Transient expression of the I-SceI endonuclease was used to generate a DNA DSB at the integrated GFP gene sequences. Briefly, H1299 cells containing the NHEJ or the HR constructs treated by 4 h with JIB-04 or DMSO were transfected with the pCMV3xnls-I-SceI (5 μg, functional endonuclease) and a pN1-mCherry plasmid (0.05 μg) as transfection control as previously stated. For the analysis of NHEJ and HR cells were harvested, resuspended in ˜1 ml 1×PBS, put on ice, and run on a BD FACScan instrument. GFP and mCherry fluorescence was analyzed using FlowJo software. Red-versus-green was plotted and DNA repair efficiency was calculated from the number of GFP-positive cells divided by the number of cells mCherry-positive cells.

For `Clc1ccc(N/N=C(\c2ccccc2)c2ccccn2)nc1` [JIB-04], the “H3K9me3 at sites of DNA damage marked by γH2AX” value (H3K9me3 at DSBs) was “No changes in H3K9me3”, the “IR-increased H3K4me3 demethylase activity” value ([1]; IR 8 Gy, 15 min after radiation) was “blocked this increased activity” and the “basal H3K4me3 demethylase activity” value ([1]; no IR) was “did not have any effects on basal activity”. The “survival of tumor bearing mice, JIB-04 with IR” value (H1299 NSCLC xenografts) was “survived significantly longer”, the “tumor growth, JIB-04 with IR” value (H1299 NSCLC xenografts) was “synergistic robust inhibition of tumor growth” and the “change in tumor volume relative to treatment start” value [2] was “continued to grow in volume”. The HR repair efficiency [3] was ≤ 50 % of normal levels.
